The test system of one experiment is tumor necrosis factor. Nature of the experiment: TNF production from LPS-induced celiac macrophage. Type of experiment: cell-based, mouse (CDF1). The procedure: (2) Paraffin oil (Cosmo Bio) (2 ml) was intraperitoneally administered to female CDF1 mice of eight weeks age to induce celiac macrophage (M.phi.). After one week from administration of paraffin oil, 4 ml of an RPMI-1640 medium (Gibco) was intraperitoneally infused, well massaged and recovered to give celiac cells.
The celiac cells were washed with an RPMI-1640 medium twice and suspended in an PPMI1640 medium containing 10% of fetal calf serum (FCS; High-Clone) to adjust the cell concentration to 1×10^6 cells/ml. The cell solution (1 ml) prepared as such was planted on a 24-well plate and incubated in a CO2 incubator at 37° C. for two hours. Non-adhesion cells contained in the supernatant liquid after incubation was removed and the adhesion cells were used as celiac M . […]
After the incubation, 100 μl of 100 ng/ml LPS (manufactured by Sigma) was added and incubation was conducted for 24 hours more. After completion of the incubation, the supernatant liquid was recovered therefrom and the amount of TNF-a produced therein was determined using a commercially available ELISA kit (manufactured by Endogen).

The test system of experiment [1] is CEM-3B cells (CEM-SS cells infected with HIV-1IIIB). As to the kind of experiment: Survival rate of HIV-1IIIB-infected CEM-SS cells (CEM-3B). To be noted: for survival rate of cells: one day. Type of experiment: cell-based. The procedure: GM (0, 4, 8 or 16 μM) was added to 2×10^5 cell/ml of CEM-SS cells (ATCC CCL-119) and to CEM-SS cells infected with HIV-1IIIB (wherein not less than 90% of the CEM-SS cells were infected with the HIV-1IIIB; hereinafter, referred to as CEM-3B) incubation was conducted for one day, viable cell numbers and dead cell numbers were counted and survival cell rate was calculated.

The next experiment has as its system Meth A cells. As to the kind of experiment: Meth A subcutaneous tumor growth in BALB/c mice. Type of experiment: in vivo, mouse. To be noted: 5 mg/kg/day s.c., five days; after two weeks. The procedure: GM was diluted with a physiological saline solution to a predetermined concentration and subjected to the following tests.
(1) Meth A cells (2×10^6 cells/mouse) were subcutaneously injected to abdomen of female BALB/c mice (body weight: about 20 g) of eight weeks age. After that, GM (5 mg/kg/day) was subcutaneously injected for consecutive five days to the same site. On the other hand, a physiological saline solution was subcutaneously injected to the control group by the same manner. After two weeks, the cancer tissues generated in abdomen of the mice were excised and their weight were measured.

A further experiment deals with Molt-3 cells. Nature of the experiment: Growth of Molt-3 cells (MTT). Particulars: 24 hours. Format: cell-based, human. Here is the method: (1) Jurkat cells (ATCC TIB-152) and Molt-3 cells (ATCC CRL-1552) which were human T cell leukemia cell stain were incubated in an RPMI 1640 medium (manufactured by Gibco BRL) containing 10% fetal calf serum (FCS, manufactured by Bio Whittaker) at 37° C. in the presence of 5% CO2 and the cells were then suspended in the above-mentioned medium containing 0, 5, 10 or 20 μM of GM to make the cell numbers 5×10^5 cells/ml followed by incubating for 24 hours. Cell growth was measured by an MTT method [Mosmann, et al.: J. Immunol. Methods, volume 65, pages 55-63 (1983)] wherein degree of cell growth was determined by the absorbance at 560 nm.

Another experiment has as its system Fas antigen. As to the kind of experiment: Fas antigen expression in Molt-3 cells. Type of experiment: cell-based, human. The procedure:
(2) Influence of GM on Fas antigen expression (productive induction) in Jurkat cells and Molt-3 cells was measured as follows. In a 10% FCS-containing RPMI 1640 medium containing 0, 1, 5, 10 or 20 μM of cyclopentenone or GM, 5×10^5 cell/ml of Jurkat cells or Molt-3 cells were incubated at 37° C. for 24 hours in the presence of 5% of CO2 and then subjected to a two-step immunostaining using an anti-Fas antibody (manufactured by Boehringer-Ingelheim) in accordance with a method of Munker [Munker, R.: Ann. Hematol., volume 70, pages 15-17 (1995)].
Fluorescence intensity of the stained 1×10^4 cells was measured by a flow cytometer (Orthocytron; manufactured by Ortho Diagnostic Systems) and ratio of the cell showing a predetermined or higher fluorescence intensity which were Fas antigen-expressing cells was calculated.
(3) Molt-3 cells were incubated for 1, 3, 6, 12 or 24 hours after addition of 10 (i M of GM by the same manner as in Example 12-(2) and then the ratio of the cells which expressed Fas antigen was measured by the same method as in Example 12-(2)sa

In a further experiment the test system is RAW264.7 cells. Nature of the experiment: Inhibition of LPS-caused cell damage in RAW264.7. Type of experiment: cell-based, mouse. Particulars: RAW 264.7. The procedure: Inhibition activity of GM to NO production and to cell damage was measured as follows using mouse macrophage cell strain RAW264.7 cells (ATCC TIB 71) and LPS.
Dulbecco-modified Eagle's medium (manufactured by Life Technologies Oriental; 11054-020) containing 2 mM of L-glutamine (manufactured by Life Technologies Oriental; 25030-149) containing no Phenol Red containing 5 ml of 10% fetal calf serum (manufactured by Gibco) containing 1.5×10^6 cells of RAW 264.7 was incubated in a six-well tissue culture plate in the presence of 5% carbon dioxide gas at 37° C. for 12 hours, 50μl of 50μg/ml LPS (manufactured by Sigma; L-2012) was added, then each 50 μl of 250 )i M Mn or 100 μH GM was added to each well, incubation was further continued for additional 12 hours and, after that, NO2^- produced by oxidation of NO in the medium and amount of viable cell numbers were measured. Incidentally, a sect-Lon where no LPS was added and a section where no GM was added were prepared as controls.

The subject of experiment [2] is heat shock protein of 70 kDa (HSP70). Nature of the experiment: Induction of heat shock protein of 70 kDa in HL-60. Particulars: 5 μM CM. Format: cell-based, human. Also noted: key: -: no induction was noted; ±: the induction was slight; indicates degree of intensity of induction and the more the numbers of "+", the more the intensity of induction; ++: the more the numbers of "+", the more the intensity of induction; +++: the more the numbers of "+", the more the intensity of induction.

The structures appear in SMILES notation.

By inhibition is commonly meant how much of the control response was suppressed. Consider `N[C@@H](CCC(=O)N[C@@H](CSC1C=C(O)C(=O)C1)C(=O)NCC(=O)O)C(=O)O` (stereo partly shown) [GM, 2-hydroxy-4-glutathion-S-yl-2-cyclopenten-1-one], for which the “inhibition activity of TNF production (in words)” value with tumor necrosis factor (Example 8) is listed as “inhibition activity of the production of tumor necrosis factor”. Moreover, the minimal effective concentration in the experiment on tumor necrosis factor (Mus musculus, Macrophage, read-out: concentration which significantly inhibited TNF production, LPS-induced, 24 hours) is at least 10 µM. Further, the “survival rate of cells” value in experiment [1] (16 μM, compared with CEM-SS) was “decreased more significantly”; in experiment [1] (4 or 8 μM), “the survival rate significantly decreased depending upon the concentration”. For the same compound, the “selective cytocidal effect to HIV-infected cells, antiviral action to HIV” value in experiment [1] (Example 15) is listed as “selective cytocidal effect to HIV-infected cells”. For the same compound, the “inhibiting action to the growth of cancer (weight of cancer tissues)” value in the experiment on Meth A cells was “significant inhibiting action to the growth of cancer”. In addition, in the experiment on Molt-3 cells (5 μM or less), the “effect in the growth of cells” value was “no significant effect in the growth of cells”. Also, the inhibition at 10 µM with Molt-3 cells (Homo sapiens, 10 μM, read-out: inhibition of cell growth) was around 50%. Also, in the experiment on Molt-3 cells (Homo sapiens, 20 μM, read-out: inhibition of cell growth), the inhibition at 20 µM is at least 75%. For the same compound, in the experiment with Fas antigen (10 μM, 1-24 hours), the “ratio of Fas antigen-expressing cells, time course” value is “increased after 12 hours from the incubation and further increase was noted after 24 hours”. Further, the “ratio of Fas antigen-expressing cells” value with Fas antigen (1-10 μM, 24 hours) is “the ratio of Fas antigen-expressing cells increased on a concentration-dependent manner”. Also, the “inhibition of cell damage caused by LPS” value in the experiment on RAW264.7 cells is “inhibited the cell damage in RAW 264.7 cells caused by LPS”.

With `N[C@@H](CSC1C=C(O)C(=O)C1)C(=O)O` (stereo partly shown) [CM], the “Induction of Heat Shock Protein” value in experiment [2] is listed as “-”.
